Results reported in patent publication US8822503B2, “2-pyridone compounds” (Taisho Pharmaceutical Co., Ltd, priority 2009, dated 2014).

Target: T1, human liver GK (Homo sapiens, UniProt P35557)
T1 construct: GST (glutathione S-transferase) (N); made in house; host or cells: E. coli
T1 sequence (P35557 1-466 isoform P35557-2): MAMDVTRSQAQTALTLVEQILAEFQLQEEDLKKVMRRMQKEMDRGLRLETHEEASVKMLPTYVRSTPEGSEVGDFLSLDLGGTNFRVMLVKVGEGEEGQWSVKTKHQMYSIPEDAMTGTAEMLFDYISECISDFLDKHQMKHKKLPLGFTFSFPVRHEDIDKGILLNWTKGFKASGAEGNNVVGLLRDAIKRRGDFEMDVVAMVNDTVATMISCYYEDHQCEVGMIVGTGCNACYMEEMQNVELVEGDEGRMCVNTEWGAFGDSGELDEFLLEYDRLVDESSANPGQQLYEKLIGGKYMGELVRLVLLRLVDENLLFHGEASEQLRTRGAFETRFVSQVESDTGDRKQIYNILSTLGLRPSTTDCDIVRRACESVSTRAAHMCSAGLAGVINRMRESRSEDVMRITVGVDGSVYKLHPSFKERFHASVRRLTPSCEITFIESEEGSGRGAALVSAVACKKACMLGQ
Experiment: GK activation test
Type: biochemical
Details: test compound concentration needed to activate 50% of maximum activation ability; 4 mM 14C-labeled glucose, 2 mM ATP, room temperature, 20 minutes
How it was run: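 GST-tagged human liver GK from E. coli (0.24 μg/well) with 4 mM 14C-glucose, 2 mM ATP in Hepes-KOH pH 7.1, KCl, MgCl2, DTT, 1% DMSO, 20 min room temperature. Labeled glucose 6-phosphate captured on anion resin, eluted and counted. EC50 = concentration giving half of maximal activation.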

| SMILES | EC50 |
| --- | --- |
| CN(C)S(=O)(=O)Nc1ccc(/C(=C\[C@H]2CCC(=O)N2)c2ccc(C3CC3)c(=O)[nH]2)cc1 [Example 4-139, N′-(4-{(E)-1-(5-Cyclopropyl-6-oxo-1,6-dihydropyridin-2-yl)-2-[(2R)-5-oxopyrrolidin-2-yl]ethenyl}phenyl)-N,N-dimethylsulfuric acid diamide] | 0.01 to 0.5 µM |
| CN(CCO)S(=O)(=O)c1ccc(/C(=C\[C@H]2CCC(=O)N2)c2ccc(C3CC3)c(=O)[nH]2)cc1 [Example 4-140, 4-{(E)-1-(5-Cyclopropyl-6-oxo-1,6-dihydropyridin-2-yl)-2-[(2R)-5-oxopyrrolidin-2-yl]ethenyl}-N-(2-hydroxyethyl)-N-methylbenzenesulfonamide] | 0.01 to 0.5 µM |
| O=C1CC[C@H](/C=C(\c2ccc(SC(F)(F)F)cc2)c2ccc(C3CC3)c(=O)[nH]2)N1 [Example 4-141, 3-Cyclopropyl-6-[(E)-2-[(2R)-5-oxopyrrolidin-2-yl]-1-{4-[(trifluoromethyl)sulfanyl]phenyl}ethenyl]pyridin-2(1H)-one] | 0.01 to 0.5 µM |
| CS(=O)(=O)c1ccc(/C(=C\[C@H]2CCC(=O)N2)c2ccc(C3CC3)c(=O)[nH]2)cn1 [Example 4-142, 3-Cyclopropyl-6-{(E)-1-[6-(methylsulfonyl)pyridin-3-yl]-2-[(2R)-5-oxopyrrolidin-2-yl]ethenyl}pyridin-2(1H)-one] | 0.5 to 3 µM |
| O=C1CC[C@H](/C=C(\c2ccc(OC3CCOCC3)c(Cl)c2)c2ccc(C3CC3)c(=O)[nH]2)N1 [Example 4-143, 6-{(E)-1-[3-Chloro-4-(tetrahydro-2H-pyran-4-yloxy)phenyl]-2-[(2R)-5-oxopyrrolidin-2-yl]ethenyl}-3-cyclopropylpyridin-2(1H)-one] | 0.01 to 0.5 µM |
| O=C1CC[C@H](/C=C(\c2ccncc2)c2ccc(C3CC3)c(=O)[nH]2)N1 [Example 4-144, 3-Cyclopropyl-6-[(E)-2-[(2R)-5-oxopyrrolidin-2-yl]-1-(pyridin-4-yl)ethenyl]pyridin-2(1H)-one] | 3 to 10 µM |
| O=C1CC[C@H](/C=C(\c2ccc(O)c(Cl)c2)c2ccc(C3CC3)c(=O)[nH]2)N1 [Example 4-145, 6-{(E)-1-(3-Chloro-4-hydroxyphenyl)-2-[(2R)-5-oxopyrrolidin-2-yl]ethenyl}-3-cyclopropylpyridin-2(1H)-one] | 0.01 to 0.5 µM |
| CN1C(=O)CC[C@@H]1/C=C(\c1ccc(C(C)(C)C)cc1)c1ccc(Cl)c(=O)[nH]1 [Example 4-146, 6-{(E)-1-(4-tert-Butylphenyl)-2-[(2R)-1-methyl-5-oxopyrrolidin-2-yl]ethenyl}-3-chloropyridin-2(1H)-one] | 0.01 to 0.5 µM |
| CC(C)c1ccc(/C(=C\[C@H]2CCC(=O)N2C)c2ccc(Cl)c(=O)[nH]2)cc1 [Example 4-147, 3-Chloro-6-{(E)-2-[(2R)-1-methyl-5-oxopyrrolidin-2-yl]-1-[4-(propan-2-yl)phenyl]ethenyl}pyridin-2(1H)-one] | 0.01 to 0.5 µM |
| COc1cc(C(C)(C)C)ccc1/C(=C\[C@H]1CCC(=O)N1)c1ccc(Cl)c(=O)[nH]1 [Example 4-148, 6-{(E)-1-(4-tert-Butyl-2-methoxyphenyl)-2-[(2R)-5-oxopyrrolidin-2-yl]ethenyl}-3-chloropyridin-2(1H)-one] | 0.5 to 3 µM |
| O=C1CC[C@H](/C=C(\c2ccc3ccccc3c2)c2ccc(Cl)c(=O)[nH]2)N1 [Example 4-149, 3-Chloro-6-{(E)-1-(naphthalen-2-yl)-2-[(2R)-5-oxopyrrolidin-2-yl]ethenyl}pyridin-2(1H)-one] | 0.5 to 3 µM |
| O=C1CC[C@H](/C=C(/c2ccc(Cl)c(=O)[nH]2)c2cccc3ccccc23)N1 [Example 4-150, 3-Chloro-6-{(E)-1-(naphthalen-1-yl)-2-[(2R)-5-oxopyrrolidin-2-yl]ethenyl}pyridin-2(1H)-one] | 3 to 10 µM |
| O=C1CC[C@H](/C=C(\c2ccc(-c3ccccc3)cc2)c2ccc(Cl)c(=O)[nH]2)N1 [Example 4-151, 6-{(E)-1-(Biphenyl-4-yl)-2-[(2R)-5-oxopyrrolidin-2-yl]ethenyl}-3-chloropyridin-2(1H)-one] | 0.5 to 3 µM |
| O=C1CC[C@H](/C=C(\c2ccc(Oc3ccccc3)cc2)c2ccc(Cl)c(=O)[nH]2)N1 [Example 4-152, 3-Chloro-6-[(E)-2-[(2R)-5-oxopyrrolidin-2-yl]-1-(4-phenoxyphenyl)ethenyl]pyridin-2(1H)-one] | 0.01 to 0.5 µM |
| NC(=O)c1cccc(/C(=C\[C@H]2CCC(=O)N2)c2ccc(Cl)c(=O)[nH]2)c1 [Example 4-153, 3-{(E)-1-(5-Chloro-6-oxo-1,6-dihydropyridin-2-yl)-2-[(2R)-5-oxopyrrolidin-2-yl]ethenyl}benzamide] | 3 to 10 µM |
| O=C1CC[C@H](/C=C(\c2ccc(OCc3ccccc3)cc2)c2ccc(Cl)c(=O)[nH]2)N1 [Example 4-154, 6-{(E)-1-[4-(Benzyloxy)phenyl]-2-[(2R)-5-oxopyrrolidin-2-yl]ethenyl}-3-chloropyridin-2(1H)-one] | 0.5 to 3 µM |
| CS(=O)(=O)Nc1ccc(/C(=C\[C@H]2CCC(=O)N2)c2ccc(Cl)c(=O)[nH]2)cc1 [Example 4-155, N-(4-{(E)-1-(5-Chloro-6-oxo-1,6-dihydropyridin-2-yl)-2-[(2R)-5-oxopyrrolidin-2-yl]ethenyl}phenyl)methanesulfonamide] | 0.5 to 3 µM |
| CC(C)NC(=O)Nc1ccc(/C(=C\[C@H]2CCC(=O)N2)c2ccc(Cl)c(=O)[nH]2)cc1 [Example 4-156, 1-(4-{(E)-1-(5-Chloro-6-oxo-1,6-dihydropyridin-2-yl)-2-[(2R)-5-oxopyrrolidin-2-yl]ethenyl}phenyl)-3-propan-2-ylurea] | 3 to 10 µM |
| CS(=O)(=O)c1cc(/C(=C\[C@H]2CCC(=O)N2)c2ccc(Cl)c(=O)[nH]2)ccc1C(F)F [Example 4-157, 3-Chloro-6-{(E)-1-[4-(difluoromethyl)-3-(methylsulfonyl)phenyl]-2-[(2R)-5-oxopyrrolidin-2-yl]ethenyl}pyridin-2(1H)-one] | 3 to 10 µM |
| C[S+]([O-])c1ccc(/C(=C\[C@H]2CCC(=O)N2)c2ccc(Cl)c(=O)[nH]2)cc1 (stereo partly drawn) [Example 4-158, 3-Chloro-6-{(E)-1-[4-(methylsulfinyl)phenyl]-2-[(2R)-5-oxopyrrolidin-2-yl]ethenyl}pyridin-2(1H)-one] | 3 to 10 µM |
| CNC(=O)c1ccc(/C(=C\[C@H]2CCC(=O)N2)c2ccc(Cl)c(=O)[nH]2)cc1 [Example 4-159, 4-{(E)-1-(5-Chloro-6-oxo-1,6-dihydropyridin-2-yl)-2-[(2R)-5-oxopyrrolidin-2-yl]ethenyl}-N-methylbenzamide] | 3 to 10 µM |
| NC(=O)c1ccc(/C(=C\[C@H]2CCC(=O)N2)c2ccc(Cl)c(=O)[nH]2)cc1 [Example 4-160, 4-{(E)-1-(5-Chloro-6-oxo-1,6-dihydropyridin-2-yl)-2-[(2R)-5-oxopyrrolidin-2-yl]ethenyl}benzamide] | 3 to 10 µM |
| CN(C)C(=O)c1ccc(/C(=C\[C@H]2CCC(=O)N2)c2ccc(Cl)c(=O)[nH]2)cc1 [Example 4-161, 4-{(E)-1-(5-Chloro-6-oxo-1,6-dihydropyridin-2-yl)-2-[(2R)-5-oxopyrrolidin-2-yl]ethenyl}-N,N-dimethylbenzamide] | 3 to 10 µM |
| CC(C)(C)c1ccc(/C(=C\[C@H]2CCC(=O)N2)c2ccc(Cl)c(=O)[nH]2)c(O)c1 [Example 4-162, 6-{(E)-1-(4-tert-Butyl-2-hydroxyphenyl)-2-[(2R)-5-oxopyrrolidin-2-yl]ethenyl}-3-chloropyridin-2(1H)-one] | 0.01 to 0.5 µM |
| CC(=O)Nc1cccc(/C(=C\[C@H]2CCC(=O)N2)c2ccc(Cl)c(=O)[nH]2)c1 [Example 4-163, N-(3-{(E)-1-(5-Chloro-6-oxo-1,6-dihydropyridin-2-yl)-2-[(2R)-5-oxopyrrolidin-2-yl]ethenyl}phenyl)acetamide] | 3 to 10 µM |
| CC(C)(C)c1ccc(/C(=C\[C@H]2CCC(=O)N2)c2ccc(OC(F)F)c(=O)[nH]2)cc1 [Example 4-165, 6-{(E)-1-(4-tert-Butylphenyl)-2-[(2R)-5-oxopyrrolidin-2-yl]ethenyl}-3-(difluoromethoxy)pyridin-2(1H)-one] | 0.01 to 0.5 µM |
| CC(C)Oc1ccc(/C(=C/[C@H]2CCC(=O)N2)c2ccc(C(C)(C)C)cc2)[nH]c1=O [Example 4-166, 6-{(E)-1-(4-tert-Butylphenyl)-2-[(2R)-5-oxopyrrolidin-2-yl]ethenyl}-3-(propan-2-yloxy)pyridin-2(1H)-one] | 0.5 to 3 µM |
| CCCOc1ccc(/C(=C/[C@H]2CCC(=O)N2)c2ccc(C(C)(C)C)cc2)[nH]c1=O [Example 4-167, 6-{(E)-1-(4-tert-Butylphenyl)-2-[(2R)-5-oxopyrrolidin-2-yl]ethenyl}-3-propoxypyridin-2(1H)-one] | 0.5 to 3 µM |
| O=C1CC[C@H](/C=C(\c2ccc(C(F)(F)F)cc2)c2ccc(OC3CCCC3)c(=O)[nH]2)N1 [Example 4-168, 3-(Cyclopentyloxy)-6-{(E)-2-[(2R)-5-oxopyrrolidin-2-yl]-1-[4-(trifluoromethyl)phenyl]ethenyl}pyridin-2(1H)-one] | 0.5 to 3 µM |
| O=C1CC[C@H](/C=C(\c2ccc(Cl)cc2)c2ccc(OCCCO)c(=O)[nH]2)N1 [Example 4-169, 6-{(E)-1-(4-Chlorophenyl)-2-[(2R)-5-oxopyrrolidin-2-yl]ethenyl}-3-(3-hydroxypropoxy)pyridin-2(1H)-one] | 3 to 10 µM |
